Results on 17 substances are retold here after patent US8178506B2, “Oligomeric compounds and compositions for use in modulation of small non-coding RNAs” (Regulus Therapeutics Inc., priority 2003, dated 2012).

In the oligonucleotide strings, read from the 5' end, every base follows the letter of its sugar. An asterisk marks phosphorothioate; unmarked linkages are phosphodiester. Other units and linkages are bracketed, terminal groups are in braces. A string of capitals states the bases alone. e = 2'-O-(2-methoxyethyl) (MOE); [5mC] = 5-methylcytosine; d = 2'-deoxy (DNA)

One data set has as its system preadipocytes. Put plainly: Caspase assay in preadipocytes.
Details: not given
Format: cell-based, human. An excerpt: The effect of oligomeric compounds of the present invention targeting miRNAs was examined in preadipocytes (Zen-Bio, Inc., Research Triangle Park, N.C.) using the fluorometric caspase assay previously described in Example 11.
As to “TGAGCTACAGTGCTTCATCTCA [ISIS 327901] (chemistry not given here) [uniform 2′-MOE PS; targets mir-143]”, the caspase activity result is given as “does not result in a significant increase in caspase activity”.

Staying with this data set, now noted: untreated control set equal to 1.0.
As for “327893 (antisense eA*eA*e[5mC]*e[5mC]*eA*e[5mC]*eA*e[5mC]*eA*eA*e[5mC]*e[5mC]*eT*eA*e[5mC]*eT*eA*e[5mC]*e[5mC]*eT*e[5mC]*eA) [compound 327893]”, the “Fold Increase over UTC (caspase activity)” value (from here on “Fold Increase over UTC”) was 1.3 fold over UTC.

Regarding “327925 (antisense eT*eA*eG*e[5mC]*eT*eG*eG*eT*eT*eG*eA*eA*eG*eG*eG*eG*eA*e[5mC]*e[5mC]*eA*eA) [compound 327925]”, the “Fold Increase over UTC” value amounted to 2.0 fold over UTC.

Take “327931 (antisense eA*eA*e[5mC]*e[5mC]*eA*eT*eA*e[5mC]*eA*eA*e[5mC]*e[5mC]*eT*eA*e[5mC]*eT*eA*e[5mC]*e[5mC]*eT*e[5mC]*eA) [compound 327931]”: the “Fold Increase over UTC” value is 1.5 fold over UTC.

On to “327967 (antisense eA*e[5mC]*eT*eG*eT*eA*e[5mC]*eA*eA*eA*e[5mC]*eT*eA*e[5mC]*eT*eA*e[5mC]*e[5mC]*eT*e[5mC]*eA) [compound 327967]”, for which the “Fold Increase over UTC” value turned out to be 1.5 fold over UTC.

In a further data set the test system is differentiated adipocytes. Put plainly: Hallmark genes and triglycerides in differentiated adipocytes. As to conditions: Table 28; differentiated adipocytes transfected day nine post-differentiation; 250 nM oligonucleotide. The format is cell-based, human. An excerpt: The effect of the oligomeric compounds of the present invention targeting miRNAs on the expression of markers of cellular differentiation was examined in differentiated adipocytes.
As previously described, the HSL, aP2, Glut4, and PPARγ genes play important rolls in the uptake of glucose and the metabolism and utilization of fats. Also as previously described, an increase in triglyceride content is another well-established marker for adipocyte differentiation. Human white preadipocytes (Zen-Bio Inc., Research Triangle Park, N.C.) were grown in preadipocyte media (ZenBio Inc.). After the cells reached confluence (approximately three days), they were exposed to differentiation media (Zen-Bio, Inc.) containing a PPAR-γ agonist, IBMX, dexamethasone, and insulin for three days. Cells were then fed Adipocyte Medium (Zen-Bio, Inc.), which was replaced at 2 to 3 day intervals. One day before transfection, 96-well plates were seeded with 3000 cells/well. Cells were then transfected on day nine post-differentiation, according to standard published procedures with 250 nM oligonucleotide in LIPOFECTIN™ (Invitrogen Corporation, Carlsbad, Calif.) (Monia et al., J. Biol. Chem. 1993 268(19):14514-22). Oligomeric compounds were tested in triplicate on each 96-well plate, and the effect of TNF-α, known to inhibit adipocyte differentiation, was also measured in triplicate. Oligomeric compound treatments and transfectant-only negative controls may be measured up to six times per plate. On day twelve post-differentiation, cells were washed and lysed at room temperature, and the expression of the four hallmark genes, HSL, aP2, Glut4, and PPARγ, as well as triglyceride (TG) accumulation were measured in adipocytes transfected with the uniform 2′-MOE phosphorothioate (PS) previously described in Example 13 as well as the chimeric gapmer oligomeric compounds targeting the mir-143 miRNA and the mir-143 pri-miRNA described in Example 16. On day twelve post-differentiation, cells were lysed in a guanadinium-containing buffer and total RNA was harvested. The amount of total RNA in each sample was determined using a Ribogreen Assay (Molecular Probes, Eugene, Oreg.). Real-time PCR was performed on the total RNA using primer/probe sets for the adipocyte differentiation hallmark genes Glut4, HSL, aP2, and PPARγ. Triglyceride levels as well as mRNA levels for each of the four adipocyte differentiation hallmark genes are expressed relative to control levels (control=treatment with ISIS-29848 (SEQ ID NO: 737)).
On to “327913 (antisense eA*eA*e[5mC]*e[5mC]*eG*eA*eT*eT*eT*e[5mC]*eA*eA*eA*eT*eG*eG*eT*eG*e[5mC]*eT*eA*eG) [compound 327913]”, for which the Glut4 is recorded as 1.52, the HSL was 1.09, the PPAR gamma came to 1.29 and the TG is recorded as 1.12. This substance also showed an aP2 of 1.05.

With “327925 (antisense eT*eA*eG*e[5mC]*eT*eG*eG*eT*eT*eG*eA*eA*eG*eG*eG*eG*eA*e[5mC]*e[5mC]*eA*eA) [compound 327925]”, the Glut4 was 0.74, the HSL amounted to 1.20, the PPAR gamma turned out to be 1.30 and the TG was 1.33. Moreover, the aP2 is recorded as 0.78.

For “328382 (e[5mC]*eA*eG*eA*e[5mC]*dT*d[5mC]*d[5mC]*d[5mC]*dA*dA*d[5mC]*dT*dG*dA*e[5mC]*e[5mC]*eA*eG*eA) [compound 328382]”, the Glut4 worked out at 0.75, the HSL came out at 0.53, the PPAR gamma was found to be 0.97 and the TG worked out at 1.33. The substance further showed an aP2 of 0.92.

“340927 (antisense eT*eG*eA*eG*e[5mC]*dT*dA*d[5mC]*dA*dG*dT*dG*d[5mC]*dT*dT*e[5mC]*eA*eT*e[5mC]*eT*e[5mC]*eA) [compound 340927]” yielded a Glut4 of 0.96, an HSL of 0.64, a PPAR gamma of 1.21 and a TG of 1.61. The same substance had an aP2 of 0.71.

“327878 (antisense e[5mC]*eT*eA*eG*eT*eG*eG*eT*e[5mC]*e[5mC]*eT*eA*eA*eA*e[5mC]*eA*eT*eT*eT*e[5mC]*eA*e[5mC]) [compound 327878]”: the Glut4 is listed as 0.17, the HSL is 0.19, the PPAR gamma is given as 0.85 and the TG is 1.08. Further, the aP2 was 0.13.

For the substance “338664 (antisense e[5mC]*eA*eG*eA*e[5mC]*eT*e[5mC]*e[5mC]*e[5mC]*eA*eA*e[5mC]*eT*eG*eA*e[5mC]*e[5mC]*eA*eG*eA) [compound 338664]”, the Glut4 is on record as 1.08, the HSL was determined as 1.01, the PPAR gamma is 1.06 and the TG is listed as 1.72. For the same substance, the aP2 was 0.77.

The substance “327933 (antisense eA*eA*eG*eG*eG*eA*eT*eT*e[5mC]*e[5mC]*eT*eG*eG*eG*eA*eA*eA*eA*e[5mC]*eT*eG*eG*eA*e[5mC]) [compound 327933]” had a Glut4 of 2.12, an HSL of 1.30, a PPAR gamma of 1.60 and a TG of 1.63. In addition, the aP2 amounted to 1.58.

For “327892 (antisense eA*e[5mC]*eT*eT*eT*e[5mC]*eG*eG*eT*eT*eA*eT*e[5mC]*eT*eA*eG*e[5mC]*eT*eT*eT*eA) [compound 327892]”, the Glut4 came out at 0.42, the HSL was found to be 0.62, the PPAR gamma is given as 1.01 and the TG is on record as 1.23. Further, the aP2 worked out at 0.81.

Substance “327876 (antisense eA*eA*e[5mC]*eA*e[5mC]*eT*eG*eA*eT*eT*eT*e[5mC]*eA*eA*eA*eT*eG*eG*eT*eG*e[5mC]*eT*eA) [compound 327876]” showed a Glut4 of 3.53, an HSL of 0.81, a PPAR gamma of 1.28 and a TG of 1.16. This substance also came in with an aP2 of 0.67.

Consider “327954 (antisense eA*e[5mC]*eA*eA*eA*eG*eT*eT*e[5mC]*eT*eG*eT*eG*eA*eT*eG*e[5mC]*eA*e[5mC]*eT*eG*eA) [compound 327954]”, for which the Glut4 came to 0.61, the HSL is recorded as 1.35, the PPAR gamma came out at 1.46 and the TG turned out to be 1.46. The aP2 was found to be 1.23.

Substance “327880 (antisense eA*e[5mC]*eA*eA*eA*eT*eT*e[5mC]*eG*eG*eT*eT*e[5mC]*eT*eA*e[5mC]*eA*eG*eG*eG*eT*eA) [compound 327880]” returned a Glut4 of 0.76, an HSL of 0.93, a PPAR gamma of 1.86 and a TG of 1.12. For the same substance, the aP2 is 1.14.

The subject of the next data set is BJ cells. Briefly: Cell cycle assay in BJ cells. Format: cell-based, human. The settings on record: 200 nM, 48 hours, relative to untreated control. The method, then: BJ cells were routinely cultured in MEM high glucose with 2 mM L-glutamine and Earle's BSS adjusted to contain 1.5 g/L sodium bicarbonate and supplemented with 10% fetal bovine serum, 0.1 mM non-essential amino acids and 1.0 mM sodium pyruvate (all media and supplements from Invitrogen Life Technologies, Carlsbad, Calif.). B16-F10 cells were routinely cultured in DMEM high glucose (Invitrogen Life Technologies, Carlsbad, Calif.) supplemented with 10% fetal bovine serum (Invitrogen Life Technologies, Carlsbad, Calif.). T47D cells were cultured in DMEM High glucose media (Invitrogen Life Technologies, Carlsbad, Calif.) supplemented with 10% fetal bovine serum. […] Cells were plated on collagen-coated 24-well plates (Falcon-Primaria #3047, BD Biosciences, Bedford, Mass.) at approximately 50,000 cells per well and allowed to attach to wells overnight.
In further studies, additional cell lines were treated with oligomeric compounds targeted against miRNAs to assess the effects of each oligomeric compound on cell cycling. BJ, B16, T47D, and HeLa cells were cultured and transfected as described above. […] T47Dp53 cells are T47D cells that have been transfected with and selected for maintenance of a plasmid that expresses a wildtype copy of the p53 gene (for example, pCMV-p53; Clontech, Palo Alto, Calif.), using standard laboratory procedures. BJ cells were treated with 200 nM of each oligomeric compound, and T47D, T47Dp53, HeLa, and B16 cells were treated with 150 nM of each oligomeric compound. The human foreskin fibroblast BJ cell line represents a non-cancer cell line, while HeLa, T47D, T47Dp53 cells and the mouse melanoma cell line B16-F10 represent cancerous cell lines. For comparison, oligomeric compounds ISIS 183891 (SEQ ID NO: 847) and ISIS 285717 ([…]; herein incorporated as SEQ ID NO: 857), both targeting the kinesin-like 1/Eg5 mRNA, involved in cell cycling, were used as positive controls. The random-mer ISIS 29848 was used as a negative control. Additionally, the oligomeric compounds ISIS Number 25690 ([…]; herein incorporated as SEQ ID NO: 858) and ISIS Number 25691 ([…]; herein incorporated as SEQ ID NO: 859), targeted to nucleotides 3051-3070 and 3085-3104, respectively, of the mRNA encoding the Drosha RNase III (GenBank Accession NM_013235.2, incorporated herein as SEQ ID NO: 860) were also tested. ISIS Number 25690 and ISIS Number 25691 are 5-10-52′-MOE gapmer compounds, 20 nucleotides in length, with phosphorothioate internucleoside linkages throughout the oligomeric compound. All cytidine residues are 5-methylcytidines. Transfections were performed using the methods described herein. Cells were prepared for flow cytometry 48-hours after oligonucleotide treatment. Results of these studies are shown in Table 35, where data are expressed as percentage of cells in each phase relative to the untreated control cells in that phase.
Take “327902 (antisense eG*eG*e[5mC]*eT*eG*eT*e[5mC]*eA*eA*eT*eT*e[5mC]*eA*eT*eA*eG*eG*eT*e[5mC]*eA*eG) [compound 327902]”: the “% cells in cell cycle phase G1” value amounted to 99%, the “% cells in cell cycle phase G2/M” value was found to be 108%, the “% cells in cell cycle phase S” value is reported as 88% and the “% cells in cell cycle phase aneuploid” value amounted to 82%. The “% cells in cell cycle phase subG1” value is recorded as 91%.

On to “328759 (antisense eG*eA*eG*eG*eG*dA*dT*dT*dG*dT*dA*dT*dG*dA*dA*e[5mC]*eA*eT*e[5mC]*eT) [compound 328759]”, for which the “% cells in cell cycle phase G1” value amounted to 91%, the “% cells in cell cycle phase G2/M” value is 141%, the “% cells in cell cycle phase S” value is reported as 117% and the “% cells in cell cycle phase aneuploid” value is given as 160%. The “% cells in cell cycle phase subG1” value worked out at 164%.
